Assay results taken from publication PMC12610274, “Identification of Marrubiin as a Cathepsin C Inhibitor for Treating Rheumatoid Arthritis” (Molecules, 2025).

Key:
intracellular CTSC = molecular target: T1, intracellular CTSC (Homo sapiens, UniProt P53634); experiment: CTSC cell-based assay using the U937 cell line; details: read-out: Cell-Based Enz (IC50: nM)
T1 construct: endogenous in cells; host or cells: U937
Method: Cell-based CTSC enzymatic activity assays were performed in 96-well clear-bottom black microplates. […] The detection substrate, H-Gly-Arg-AFC, was diluted to 100 µM in serum-free medium and stored for later use. U937 cells in the logarithmic growth phase were harvested, washed with PBS, and counted. A single-cell suspension was prepared at a density of 1.0 × 10^6 cells/mL using serum-free medium. 30 µL of cell suspension was seeded into each well of the 96-well plate. To the test wells, 10 µL of the compound working solution was added, while 10 µL of serum-free medium was added to the control wells. The plate was pre-incubated in a cell culture incubator at 37 °C for 3 h. Subsequently, 10 µL of H-Gly-Arg-AFC was added to initiate the enzymatic reaction, and the plate was further incubated at 37 °C for 1 h. Fluorescence measurements were performed using a multimode microplate reader at excitation/emission wavelengths of 400/505 nm. Each group of tests was independently repeated at least 3 times, and IC50 values were calculated using SPSS 10.0.

[1] = Cytotoxicity assay, U937 cell line; type: cell-based; details: human, U937 cells
Method: (§1) RAW264.7 cells and U937 cells in the logarithmic growth phase were counted and diluted, and the concentrations of the single-cell suspensions of the two types of cells were adjusted to 5 × 10^4 cells/mL and 3 × 10^4 cells/mL, respectively. After thorough mixing, the cells were seeded into a 96-well plate, with 100 μL of cell suspension added to each well. Prepare the working solution of test compounds using the corresponding medium as the solvent, with the concentration of working solution being 2 times the final test concentration (2.5 μM, 5 μM, 10 μM, 20 μM, and 40 μM). Twenty-four hours after cell seeding, the compound working solutions were added to the compound test wells, and the same volume of medium was added to the negative control wells, followed by continuous incubation for another 24 h. Only the wells with the same volume but without cells served as the blank control group. The CellTiter-Lumi™ luminescent cell viability assay kit (Beyotime Biotechnology, Shanghai, China, C0065XL) was used to detect cell viability according to the standard operating procedures. Each group of tests was independently repeated at least 3 times, and IC50 values were calculated using SPSS 10.0.

[2] = Cytotoxicity assay, RAW264.7 cell line; type: cell-based; details: mouse, RAW264.7 cells
Method: as §1

CTSC = CTSC (Homo sapiens, UniProt P53634); experiment: Human recombinant CTSC isolated enzyme assay; type: biochemical; parameters: purchased R&D Systems; details: human recombinant CTSC, cell-free, 12-point dose-response; read-out: CTSC Enz (IC50: nM)
CTSC, sequence (P53634 25-134 limits assumed): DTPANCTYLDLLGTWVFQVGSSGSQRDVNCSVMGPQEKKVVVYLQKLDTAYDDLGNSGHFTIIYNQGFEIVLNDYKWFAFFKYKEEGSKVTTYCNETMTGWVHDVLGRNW
CTSC, sequence (P53634 231-394 limits assumed): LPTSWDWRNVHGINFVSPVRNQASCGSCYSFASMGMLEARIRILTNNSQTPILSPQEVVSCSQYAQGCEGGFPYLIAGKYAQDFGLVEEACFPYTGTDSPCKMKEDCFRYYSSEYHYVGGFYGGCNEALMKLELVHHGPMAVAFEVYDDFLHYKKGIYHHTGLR
CTSC, sequence (P53634 395-463 limits assumed): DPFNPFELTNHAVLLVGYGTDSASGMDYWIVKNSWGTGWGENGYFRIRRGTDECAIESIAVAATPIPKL
Method: Both recombinant CTSL and CTSC for in vitro cell-free-based enzymatic activity assay can be purchased from R&D Systems (Minneapolis, MN, USA), a biotechnology company. According to the standardized procedures and material ratios provided by R&D Systems, prepare the activation solution (25 mM MES + 5 mM DTT, pH 6.0) and the assay solution (25 mM MES + 50 mM NaCl + 5 mM DTT, pH 6.0) in advance for later use. Dilute the detection substrate H-Gly-Arg-AMC to a 200 µM solution with the assay solution for standby. Prepare the working solution of compounds to be tested using the assay solution, with the concentration of working solution being 10 times the final test concentration. Dilute CTSC and CTSL, respectively, with cold activation solution. Thoroughly mix the two activation solutions containing the proteins to achieve final concentrations of 300 nM for CTSL and 440 nM for CTSC. After co-incubation for 1 h, the activated CTSC treated with CTSL can be used for the enzymatic activity inhibition efficacy test of compounds. Dilute the activated CTSC to 4.4 nM with cold assay buffer. Incubate 4 μL of the activated CTSC with 1 μL of the compound working solution (test group) or 1 μL of blank assay solution (control group) at room temperature for 3 h. Then, add 5 μL of the detection substrate to achieve a final concentration of 100 μM. Mix 5 µL each of the assay solution and the substrate solution as the blank group. After 1 h, the absorbance of detection substrate was measured using a multifunctional microplate reader at excitation/emission wavelengths of 380 nm/460 nm. The inhibitory efficacy of molecules on enzyme activity was calculated based on the absorbance difference between test group and control group. […] Each group of tests mentioned above was independently repeated at least 3 times, and IC50 values were calculated using SPSS 10.0.

T1 sequence (P53634 25-463): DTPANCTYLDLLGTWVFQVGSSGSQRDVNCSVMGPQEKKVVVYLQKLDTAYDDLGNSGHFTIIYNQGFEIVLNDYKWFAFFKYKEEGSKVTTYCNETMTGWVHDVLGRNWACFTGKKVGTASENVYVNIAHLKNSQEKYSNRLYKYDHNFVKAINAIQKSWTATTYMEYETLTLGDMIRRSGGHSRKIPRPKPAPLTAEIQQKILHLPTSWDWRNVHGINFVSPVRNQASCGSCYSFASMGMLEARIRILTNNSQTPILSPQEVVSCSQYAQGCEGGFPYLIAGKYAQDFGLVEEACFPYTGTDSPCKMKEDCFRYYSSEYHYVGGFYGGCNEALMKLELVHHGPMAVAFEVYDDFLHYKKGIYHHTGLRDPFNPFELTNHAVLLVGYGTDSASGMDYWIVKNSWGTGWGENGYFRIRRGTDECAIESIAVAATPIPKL

IC50 (intracellular CTSC): 702.1 ± 3.2 nM
IC50 (CTSC): 1053 ± 2.2 nM
SMILES: CC(=O)OCC1=CO[C@@H](OC(=O)CC(C)C)[C@H]2C1=C[C@H](OC(=O)CC(C)(C)OC(C)=O)[C@]21CO1 [Acevaltrate, acevaltrate]
IC50 at 24 h [1]: > 10 µM
IC50 at 24 h [2]: > 10 µM
